Test results: ChEMBL document CHEMBL1255224, “Design and synthesis of prolylcarboxypeptidase (PrCP) inhibitors to validate PrCP as a potential target for obesity” (J Med Chem, 2010)

How the values were obtained:
[1] = biological target: T1, Lysosomal Pro-X carboxypeptidase (Mus musculus, UniProt Q7TMR0); assay: Inhibition of mouse PrCP by FRET
T1 sequence (Q7TMR0 whole entry): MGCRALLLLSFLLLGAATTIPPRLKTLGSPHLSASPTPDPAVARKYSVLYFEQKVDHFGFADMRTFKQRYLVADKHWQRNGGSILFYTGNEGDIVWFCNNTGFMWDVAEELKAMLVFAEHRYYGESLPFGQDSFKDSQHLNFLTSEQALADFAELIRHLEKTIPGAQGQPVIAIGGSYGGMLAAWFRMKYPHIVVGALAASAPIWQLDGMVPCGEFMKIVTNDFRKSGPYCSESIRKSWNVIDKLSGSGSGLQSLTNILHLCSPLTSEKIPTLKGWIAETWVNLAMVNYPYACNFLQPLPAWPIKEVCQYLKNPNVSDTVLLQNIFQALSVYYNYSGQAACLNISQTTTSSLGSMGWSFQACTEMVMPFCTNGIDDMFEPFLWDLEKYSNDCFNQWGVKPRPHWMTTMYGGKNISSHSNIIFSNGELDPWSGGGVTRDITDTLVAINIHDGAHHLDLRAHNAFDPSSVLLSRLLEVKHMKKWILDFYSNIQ

[2] = Clearance in mouse; assay type: ADME, organism-based; details: in vivo
[3] = Volume of distribution in mouse; assay type: ADME, organism-based; details: in vivo
[4] = Half life in mouse; assay type: ADME, organism-based; details: in vivo
[5] = Oral bioavailability in mouse; assay type: ADME, organism-based; details: in vivo
[6] = biological target: T1, Lysosomal Pro-X carboxypeptidase; assay: Inhibition of mouse PrCP by FRET in presence of 1% mouse serum albumin
Mus musculus [7] = assay: Antiobesity activity against C57BL/6NT mouse overexpressing PrCP assessed as reduction in body weight at 100 mg/kg, po; assay type: functional; set-up: scale not given: the % may be the effect or the level left
Mus musculus [8] = assay: Antiobesity activity against C57BL/6NT mouse PrCP knock out model assessed as reduction in body weight at 100 mg/kg, po for 5 days; assay type: functional; set-up: scale not given: the % may be the effect or the level left
Blood [9] = assay: Drug level in C57BL/6NT wild type mouse blood at 100 mg/kg, po; assay type: ADME, organism-based; set-up: dose 100 mg/kg, route oral; details: in vivo, read-out: Activity
Brain [10] = assay: Drug level in C57BL/6NT wild type mouse brain at 100 mg/kg, po; assay type: ADME, organism-based; set-up: dose 100 mg/kg, route oral; details: in vivo, read-out: Activity
Blood [11] = assay: Drug level in C57BL/6NT PrCP knock out mouse blood at 100 mg/kg, po; assay type: ADME, organism-based; set-up: dose 100 mg/kg, route oral; details: in vivo, read-out: Activity
Brain [12] = assay: Drug level in C57BL/6NT PrCP knock out mouse brain at 100 mg/kg, po; assay type: ADME, organism-based; set-up: dose 100 mg/kg, route oral; details: in vivo, read-out: Activity

Row | SMILES | IC50 [1] [nM] | clearance [2] [mL/min/kg] | Vd [3] [L/kg] | half-life [4] [h] | bioavailability [5] [%] | IC50 [6] [nM] | Activity (Mus musculus [7]) [%] | Activity (Mus musculus [8]) [%] | concentration (Blood [9]) [nM] | concentration (Brain [10]) [nM] | concentration (Blood [11]) [nM] | concentration (Brain [12]) [nM]
1 | O=C(CCc1ccc(-c2ccccc2)cc1)N1CCC[C@H]1c1ncc(-c2cccc(F)c2)[nH]1 | 871 | 75 | 4.6 | 0.8 | 5 |  |  |  |  |  |  | 
2 | CC(C)(Cc1ccc(-c2ccccc2)cc1)C(=O)N1CCC[C@H]1c1nc(-c2cccc(F)c2)c[nH]1 |  | 92 | 8.8 | 2.3 | 5 |  |  |  |  |  |  | 
3 | Cc1ccccc1-c1c[nH]c([C@@H]2CCCN2C(=O)COc2ccc(-c3ccccc3)cc2)n1 |  | 54 | 4 | 3.4 | 49 |  |  |  |  |  |  | 
4 | CC(C)(Cc1ccc(-c2cccc(Cl)c2Cl)cc1)C(=O)N1CC(F)(F)C[C@H]1c1ncc(-c2cccc(Br)c2)[nH]1 |  | 15 | 4 | 9.6 | 5 |  |  |  |  |  |  | 
5 | Cc1cccc2[nH]c([C@@H]3[C@@H]4C[C@@H]4CN3C(=O)COc3ccc(-c4ccccc4)cc3)nc12 |  | 41 | 2.3 | 0.6 | 20 |  |  |  |  |  |  | 
6 | N#Cc1cccc(-c2ccc(CCC(=O)N3C[C@H](O)C[C@H]3c3nc(-c4cccc(Cl)c4)c[nH]3)cc2)c1 |  | 82 | 2.2 | 0.6 | 1 |  |  |  |  |  |  | 
7 | CC(C)(N)C(=O)N[C@@H](Cc1ccc(-c2ccccc2)cc1)C(=O)N1CCC[C@H]1c1nc2cc(Cl)c(Cl)cc2[nH]1 | 15 | 12 | 2.7 | 2.8 | 31 | 789 |  |  |  |  |  | 
8 | CC(C)(N)C(=O)N[C@@H](Cc1ccc(Cl)cc1)C(=O)N1CCC[C@H]1c1nc2cc(Cl)c(Cl)cc2[nH]1 |  | 7 | 2.6 | 3 | 100 |  |  |  |  |  |  | 
9 | COc1ccc(C[C@H](NC(=O)C(C)(C)N)C(=O)N2CC[C@H]2c2nc3cc(Cl)c(Cl)cc3[nH]2)cc1 | 251 | 25 | 2.2 | 1.4 | 33 | 3320 |  |  |  |  |  | 
10 | CC(C)(O)C(=O)N[C@@H](Cc1ccc(-c2ccccc2)cc1)C(=O)N1CCC[C@H]1c1nc2cc(F)c(F)cc2[nH]1 |  | 39 | 1.5 | 0.5 | 9 |  |  |  |  |  |  | 
11 | CC(C)(CN)C(=O)N[C@@H](Cc1ccc(-c2ccccc2)cc1)C(=O)N1CCC[C@H]1c1nc2cc(Cl)c(Cl)cc2[nH]1 |  | 23 | 7.9 | 4.3 | 0 |  |  |  |  |  |  | 
12 | CC(C)(N)CC(=O)N[C@@H](Cc1ccc(-c2ccccc2)cc1)C(=O)N1CCC[C@H]1c1nc2cc(Cl)c(Cl)cc2[nH]1 |  | 14 | 6.8 | 5.2 | 0 |  |  |  |  |  |  | 
13 | CC(C)(N)C(=O)N[C@@H](Cc1ccc(-c2ccccc2)cc1)C(=O)N1CCC[C@H]1c1ncc(C(C)(C)C)[nH]1 | 41 | 11 | 11 | 15 | 6 | 17 |  |  |  |  |  | 
14 | CC(C)(O)C(=O)N[C@@H](Cc1ccc(-c2ccccc2)cc1)C(=O)N1CCC[C@H]1c1ncc(C(C)(C)C)[nH]1 | 16 | 117 | 2.9 | 0.4 | 0 | 15 |  |  |  |  |  | 
15 | C[C@@H](c1ccc(-c2ccccc2)cc1)[C@H](NC(=O)C(C)(C)N)C(=O)N1CCC[C@H]1c1nc2cc(Cl)c(Cl)cc2[nH]1 | 2 | 23 | 4.4 | 2.3 | 13 | 8 | 4.9 | 1.1 | 380 | 50 | 430 | 40
16 | C[C@@H](c1ccccc1)[C@H](NC(=O)C(C)(C)N)C(=O)N1CCC[C@H]1c1nc2cc(Cl)c(Cl)cc2[nH]1 | 32 | 17 | 1.5 | 1.5 | 41 | 60 |  |  |  |  |  | 
17 | C[C@@H](c1ccc(-c2ccc(F)cc2)cc1)[C@H](NC(=O)C(C)(C)O)C(=O)N1CCC[C@H]1c1nc2cc(Cl)c(Cl)cc2[nH]1 |  | 23 | 1.2 | 0.8 | 12 |  |  |  |  |  |  | 
18 | C[C@@H](c1ccccc1)[C@H](NC(=O)C(C)(C)O)C(=O)N1CCC[C@H]1c1nc2cc(Cl)c(Cl)cc2[nH]1 | 29 | 72 | 2.4 | 0.5 | 4 | 98 |  |  |  |  |  | 
19 | Cn1cc(-c2ccc(C[C@H](NC(=O)C(C)(C)N)C(=O)N3CCC[C@H]3c3nc4cc(Cl)c(Cl)cc4[nH]3)cc2)ccc1=O |  | 70 | 14 | 2.6 | 0 |  |  |  |  |  |  | 
